Laboratory results taken from patent publication US6069160A, “Heteroatom-containing benzocyclopentane-oxazolidinones” (Bayer Aktiengesellschaft, priority 1995, dated 2000).
In brackets after ≈: the same amount, converted by molar mass. Read-outs that look alike come from different tables or passages of the source.

Key:
Assay type in all cases: cell-based
[1] = test system: Staph. 133; assay: MIC by series dilution method
Procedure: (§1) The minimum inhibitory concentration (MIC) were determined by a series dilution method on Iso-Sensitest agar (Oxoid). For each test substance, a series of agar plates each comprising concentrations of the active compound decreasing by double dilution in each case was prepared. The agar plates were inoculated with a multipoint inoculator (Denley). Overnight cultures of the pathogens which had been diluted beforehand such that each inoculation point comprised about 10^4 colony-forming particles were used for the inoculation. The inoculated agar plates were incubated at 37° C. and the germ growth was read off after about 20 hours. The MIC value (μg/ml) indicates the lowest active compound concentration at which no growth was detectable with the naked eye. […]

[2] = test system: Staph. 25701; assay: MIC by series dilution method
Procedure: as §1

[3] = test system: Staph. 48N; assay: MIC by series dilution method
Procedure: as §1

[4] = test system: Staph. 9TV; assay: MIC by series dilution method
Procedure: as §1

[5] = test system: E. coli Neumann; assay: MIC by series dilution method; conditions: Escherichia coli
Procedure: (§2) The minimum inhibitory concentration (MIC) were determined by a series dilution method on Iso-Sensitest agar (Oxoid). For each test substance, a series of agar plates each comprising concentrations of the active compound decreasing by double dilution in each case was prepared. The agar plates were inoculated with a multipoint inoculator (Denley). Overnight cultures of the pathogens which had been diluted beforehand such that each inoculation point comprised about 10^4 colony-forming particles were used for the inoculation. The inoculated agar plates were incubated at 37° C. and the germ growth was read off after about 20 hours. The MIC value (μg/ml) indicates the lowest active compound concentration at which no growth was detectable with the naked eye.

[6] = test system: Klebs. 57 USA; assay: MIC by series dilution method; conditions: 37° C., about 20 hours
Procedure: as §2

[7] = test system: Psdm. Bonn; assay: MIC by series dilution method; conditions: 37° C., about 20 hours
Procedure: as §2

[8] = test system: Mycobacterium smegmacis DSM 43061; assay: MIC in microtiter plates (Mycobacterium); conditions: DSM43061, 37° C., 3 to 5 days
Procedure: (§3) The microtiter plates were incubated at 37° C. and read off after about 20 hours (Staph) or after 3 to 5 days (Mycobacterium). The MIC value (μg/ml) indicates the lowest concentration of active substance at which no growth was detectable.

[9] = test system: Mycobacterium smegmacis DSM 43078; assay: MIC in microtiter plates (Mycobacterium); conditions: DSM43078, 37° C., 3 to 5 days
Procedure: as §3

[10] = test system: Mycobacterium smegmacis DSM 43277; assay: MIC in microtiter plates (Mycobacterium); conditions: DSM43277, 37° C., 3 to 5 days
Procedure: as §3

[11] = test system: Mycobacterium smegmacis DSM 43299; assay: MIC in microtiter plates (Mycobacterium); conditions: DSM43299, 37° C., 3 to 5 days
Procedure: as §3

[12] = test system: Mycobacterium smegmacis DSM 43464; assay: MIC in microtiter plates (Mycobacterium); conditions: DSM43464, 37° C., 3 to 5 days
Procedure: as §3

[13] = test system: Mycobacterium smegmacis DSM 43465; assay: MIC in microtiter plates (Mycobacterium); conditions: DSM43465, 37° C., 3 to 5 days
Procedure: as §3

[14] = Staph. 133, 37° C., about 20 hours, read-out: MIC
[15] = Staph. 25701, 37° C., about 20 hours, read-out: MIC
[16] = Staph. 48N, 37° C., about 20 hours, read-out: MIC
[17] = Staph. 9TV, 37° C., about 20 hours, read-out: MIC
[18] = E. coli Neumann, 37° C., about 20 hours, read-out: MIC

## COP(=O)(NC[C@H]1CN(c2ccc3c(c2)sc(=O)n3C)C(=O)O1)OC [Example 17]
[1]; 20 h
  MIC: 8 µg/mL (≈ 20.7 µM)
[2]; 20 h
  MIC: 8 µg/mL (≈ 20.7 µM)
[3]; 20 h
  MIC: 8 µg/mL (≈ 20.7 µM)
[4]; 20 h
  MIC: 8 µg/mL (≈ 20.7 µM)
[5]; 20 h
  MIC: > 64 µg/mL
[6]
  MIC: > 64 µg/mL
[7]
  MIC: > 64 µg/mL

## CC(=O)NC[C@H]1CN(c2ccc3c(c2)sc(=O)n3C)C(=O)O1 [Example 18]
[1]; [14]
  MIC: 0.25 µg/mL (≈ 0.778 µM)
[2]; [15]
  MIC: 0.25 µg/mL (≈ 0.778 µM)
[3]; [16]
  MIC: 0.25 µg/mL (≈ 0.778 µM)
[4]; [17]
  MIC: 0.06 µg/mL (≈ 0.187 µM)
[5]; 20 h
  MIC: > 64 µg/mL
[6]
  MIC: > 64 µg/mL
[7]
  MIC: > 64 µg/mL
[8]
  MIC: 0.25 µg/mL (≈ 0.778 µM)
[9]
  MIC: 0.25 µg/mL (≈ 0.778 µM)
[10]
  MIC: 0.25 µg/mL (≈ 0.778 µM)
[11]
  MIC: 1 µg/mL (≈ 3.11 µM)
[12]
  MIC: 1 µg/mL (≈ 3.11 µM)
[13]
  MIC: 0.5 µg/mL (≈ 1.56 µM)

## CCn1c(=O)sc2cc(N3C[C@H](CNC(C)=O)OC3=O)ccc21 [Example 22]
[1]; [14]
  MIC: 1 µg/mL (≈ 2.98 µM)
[2]; [15]
  MIC: 1 µg/mL (≈ 2.98 µM)
[3]; [16]
  MIC: 1 µg/mL (≈ 2.98 µM)
[4]; [17]
  MIC: 0.5 µg/mL (≈ 1.49 µM)
[5]; 20 h
  MIC: > 64 µg/mL
[6]
  MIC: > 64 µg/mL
[7]
  MIC: > 64 µg/mL

## CC(=O)NC[C@H]1CN(c2ccc3[nH]c(=O)oc3c2)C(=O)O1 [Example 24]
[1]; 20 h
  MIC: 8 µg/mL (≈ 27.5 µM)
[2]; [15]
  MIC: 16 µg/mL (≈ 54.9 µM)
[3]; [16]
  MIC: 16 µg/mL (≈ 54.9 µM)
[4]; [17]
  MIC: 16 µg/mL (≈ 54.9 µM)
[5]; 20 h
  MIC: > 64 µg/mL
[6]
  MIC: > 64 µg/mL
[7]
  MIC: > 64 µg/mL

## CC(=O)NC[C@H]1CN(c2ccc3c(c2)oc(=O)n3C)C(=O)O1 [Example 37]
[1]; [14]
  MIC: 1 µg/mL (≈ 3.28 µM)
[2]; [15]
  MIC: 1 µg/mL (≈ 3.28 µM)
[3]; [16]
  MIC: 1 µg/mL (≈ 3.28 µM)
[4]; [17]
  MIC: 0.5 µg/mL (≈ 1.64 µM)
[5]; [18]
  MIC: 16 µg/mL (≈ 52.4 µM)
[6]
  MIC: 64 µg/mL (≈ 210 µM)
[7]
  MIC: 64 µg/mL (≈ 210 µM)

## CC(=O)NC[C@H]1CN(c2ccc3c(c2)oc(=O)n3Cc2ccccc2)C(=O)O1 [Example 38]
[1]; [14]
  MIC: 4 µg/mL (≈ 10.5 µM)
[2]; [15]
  MIC: 4 µg/mL (≈ 10.5 µM)
[3]; [16]
  MIC: 4 µg/mL (≈ 10.5 µM)
[4]; [17]
  MIC: 1 µg/mL (≈ 2.62 µM)
[5]; 20 h
  MIC: > 64 µg/mL
[6]
  MIC: > 64 µg/mL
[7]
  MIC: > 64 µg/mL

## CCOC(=O)Cn1c(=O)oc2cc(N3C[C@H](CNC(C)=O)OC3=O)ccc21 [Example 39]
[1]; [14]
  MIC: 4 µg/mL (≈ 10.6 µM)
[2]; [15]
  MIC: 4 µg/mL (≈ 10.6 µM)
[3]; [16]
  MIC: 4 µg/mL (≈ 10.6 µM)
[4]; [17]
  MIC: 4 µg/mL (≈ 10.6 µM)
[5]; 20 h
  MIC: > 64 µg/mL
[6]
  MIC: > 64 µg/mL
[7]
  MIC: > 64 µg/mL

## CC(=O)NC[C@H]1CN(c2ccc3c(c2)oc(=S)n3C)C(=O)O1 [Example 43]
[1]; [14]
  MIC: 0.25 µg/mL (≈ 0.778 µM)
[2]; [15]
  MIC: 0.25 µg/mL (≈ 0.778 µM)
[3]; [16]
  MIC: 0.125 µg/mL (≈ 0.389 µM)
[4]; [17]
  MIC: 0.125 µg/mL (≈ 0.389 µM)
[5]; [18]
  MIC: > 32 µg/mL
[6]
  MIC: > 64 µg/mL
[7]
  MIC: > 64 µg/mL

## CCn1c(=S)sc2cc(N3C[C@H](CNC(C)=O)OC3=O)ccc21 [Example 44]
[1]; [14]
  MIC: 0.5 µg/mL (≈ 1.42 µM)
[2]; [15]
  MIC: 0.5 µg/mL (≈ 1.42 µM)
[3]; [16]
  MIC: 0.5 µg/mL (≈ 1.42 µM)
[4]; [17]
  MIC: 0.5 µg/mL (≈ 1.42 µM)
[5]; 20 h
  MIC: > 64 µg/mL
[6]
  MIC: > 64 µg/mL
[7]
  MIC: > 64 µg/mL

## CC(=O)NC[C@H]1CN(c2ccc3c(c2)oc(=O)n3C(C)C)C(=O)O1 [Example 47]
[1]; [14]
  MIC: 0.5 µg/mL (≈ 1.5 µM)
[2]; [15]
  MIC: 0.5 µg/mL (≈ 1.5 µM)
[3]; [16]
  MIC: 0.5 µg/mL (≈ 1.5 µM)
[4]; [17]
  MIC: 0.25 µg/mL (≈ 0.75 µM)
[5]; [18]
  MIC: 32 µg/mL (≈ 96 µM)
[6]
  MIC: 64 µg/mL (≈ 192 µM)
[7]
  MIC: > 64 µg/mL

## Cn1c(=O)sc2cc(N3C[C@H](CNC(=O)C4CC4)OC3=O)ccc21 [Example 54]
[8]
  MIC: 4 µg/mL (≈ 11.5 µM)
[9]
  MIC: 1 µg/mL (≈ 2.88 µM)
[10]
  MIC: 2 µg/mL (≈ 5.76 µM)
[11]
  MIC: 4 µg/mL (≈ 11.5 µM)
[12]
  MIC: 16 µg/mL (≈ 46.1 µM)
[13]
  MIC: 4 µg/mL (≈ 11.5 µM)

## CCC(=O)NC[C@H]1CN(c2ccc3c(c2)sc(=O)n3C)C(=O)O1 [Example 56]
[1]; [14]
  MIC: 0.5 µg/mL (≈ 1.49 µM)
[2]; [15]
  MIC: 0.5 µg/mL (≈ 1.49 µM)
[3]; [16]
  MIC: 0.5 µg/mL (≈ 1.49 µM)
[4]; [17]
  MIC: 0.25 µg/mL (≈ 0.745 µM)
[5]; 20 h
  MIC: 64 µg/mL (≈ 191 µM)
[6]
  MIC: > 64 µg/mL
[7]
  MIC: > 64 µg/mL
[8]
  MIC: 1 µg/mL (≈ 2.98 µM)
[9]
  MIC: 1 µg/mL (≈ 2.98 µM)
[10]
  MIC: 0.25 µg/mL (≈ 0.745 µM)
[11]
  MIC: 1 µg/mL (≈ 2.98 µM)
[12]
  MIC: 4 µg/mL (≈ 11.9 µM)
[13]
  MIC: 0.5 µg/mL (≈ 1.49 µM)

## Cn1c(=O)sc2cc(N3C[C@H](CNC(=O)C4CCC4)OC3=O)ccc21 [Example 62]
[1]; [14]
  MIC: 1 µg/mL (≈ 2.77 µM)
[2]; [15]
  MIC: 1 µg/mL (≈ 2.77 µM)
[3]; [16]
  MIC: 1 µg/mL (≈ 2.77 µM)
[4]; [17]
  MIC: 0.5 µg/mL (≈ 1.38 µM)
[5]; 20 h
  MIC: > 64 µg/mL
[6]
  MIC: > 64 µg/mL
[7]
  MIC: > 64 µg/mL

## COC(=O)NC[C@H]1CN(c2ccc3c(c2)sc(=O)n3C)C(=O)O1 [Example 70]
[1]; [14]
  MIC: 0.5 µg/mL (≈ 1.48 µM)
[2]; [15]
  MIC: 0.5 µg/mL (≈ 1.48 µM)
[3]; [16]
  MIC: 0.5 µg/mL (≈ 1.48 µM)
[4]; [17]
  MIC: 0.5 µg/mL (≈ 1.48 µM)
[5]; 20 h
  MIC: > 64 µg/mL
[6]
  MIC: > 64 µg/mL
[7]
  MIC: > 64 µg/mL
[8]
  MIC: 0.25 µg/mL (≈ 0.741 µM)
[9]
  MIC: 0.125 µg/mL (≈ 0.371 µM)
[10]
  MIC: 0.5 µg/mL (≈ 1.48 µM)
[11]
  MIC: 2 µg/mL (≈ 5.93 µM)
[12]
  MIC: 8 µg/mL (≈ 23.7 µM)
[13]
  MIC: 1 µg/mL (≈ 2.96 µM)

## CCCCCn1c(=O)oc2cc(N3C[C@H](CNC(C)=O)OC3=O)ccc21 [Example 84]
[1]; [14]
  MIC: 1 µg/mL (≈ 2.77 µM)
[2]; [15]
  MIC: 1 µg/mL (≈ 2.77 µM)
[3]; [16]
  MIC: 1 µg/mL (≈ 2.77 µM)
[4]; [17]
  MIC: 0.5 µg/mL (≈ 1.38 µM)
[5]; 20 h
  MIC: 64 µg/mL (≈ 177 µM)
[6]
  MIC: > 64 µg/mL
[7]
  MIC: > 64 µg/mL

## CC(=O)NC[C@H]1CN(c2ccc3c(c2)oc(=NC(=O)C2CC2)n3C)C(=O)O1 [Example 94]
[1]; [14]
  MIC: 0.5 µg/mL (≈ 1.34 µM)
[2]; [15]
  MIC: 0.5 µg/mL (≈ 1.34 µM)
[3]; [16]
  MIC: 0.5 µg/mL (≈ 1.34 µM)
[4]; [17]
  MIC: 0.25 µg/mL (≈ 0.671 µM)
[5]; 20 h
  MIC: 64 µg/mL (≈ 172 µM)
[6]
  MIC: > 64 µg/mL
[7]
  MIC: > 64 µg/mL
